Structures are written as SMILES.

The record followed here is patent US10519154B2, “7-substituted 1-pyridyl-naphthyridine-3-carboxylic acid amides and use thereof” (Bayer Pharma Aktiengesellschaft, priority 2016, dated 2019).

This assay addresses T1, human M2 receptor (Homo sapiens, UniProt P08172).
T1 sequence (P08172 1-466): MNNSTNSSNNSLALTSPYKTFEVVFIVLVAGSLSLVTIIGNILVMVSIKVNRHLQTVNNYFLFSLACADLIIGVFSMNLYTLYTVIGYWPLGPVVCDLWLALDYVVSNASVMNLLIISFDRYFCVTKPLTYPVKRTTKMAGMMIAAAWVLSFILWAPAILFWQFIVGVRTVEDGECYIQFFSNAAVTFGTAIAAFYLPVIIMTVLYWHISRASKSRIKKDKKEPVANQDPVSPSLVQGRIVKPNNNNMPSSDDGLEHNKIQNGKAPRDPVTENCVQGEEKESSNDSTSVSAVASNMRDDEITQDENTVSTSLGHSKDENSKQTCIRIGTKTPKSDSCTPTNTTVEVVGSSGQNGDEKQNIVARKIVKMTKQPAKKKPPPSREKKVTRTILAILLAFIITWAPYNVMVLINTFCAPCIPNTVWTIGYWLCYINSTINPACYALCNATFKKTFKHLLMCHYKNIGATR
Put plainly: Functional M2-GIRK1/4 activation test: allosteric potency (EC50) and efficiency. To be noted: for EC50: Receptor activity EC50, CHO-DUKX-M2-GIRK cells, acetylcholine at EC20, in some cases mean of two or more determinations; for Emax: read-out: Efficiency, boosting of the acetylcholine effect at EC20 acetylcholine concentration, CHO-DUKX-M2-GIRK cells.

Turning to `C[C@H](NC(=O)c1cn(-c2ncc(F)cc2F)c2nc(N3C[C@@H](O)CC3=O)ccc2c1=O)C(F)(F)F` [Example 3, 1-(3,5-Difluoropyridin-2-yl)-7-[(4S)-4-hydroxy-2-oxopyrrolidin-1-yl]-4-oxo-N-[(2S)-1,1,1-trifluoropropan-2-yl]-1,4-dihydro-1,8-naphthyridine-3-carboxamide], the concentration for a half-maximal effect (EC50) (as a rule, the concentration at which the effect is half-maximal) turned out to be 240 nM and the Emax was found to be 97.8%.
`O=C(NC(c1cccc(Cl)c1)C(F)(F)F)c1cn(-c2ncc(F)cc2F)c2nc(N3C[C@@H](O)CC3=O)ccc2c1=O` (stereo partly drawn) [Example 7, N-[1-(3-Chlorophenyl)-2,2,2-trifluoroethyl]-1-(3,5-difluoropyridin-2-yl)-7-[(4S)-4-hydroxy-2-oxopyrrolidin-1-yl]-4-oxo-1,4-dihydro-1,8-naphthyridine-3-carboxamide]: the concentration for a half-maximal effect (EC50) is 22 nM and the Emax stood at 100%.
The matching figures for `O=C(NC(c1ccc(Cl)cc1)C(F)(F)F)c1cn(-c2ncc(F)cc2F)c2nc(N3C[C@@H](O)CC3=O)ccc2c1=O` (stereo partly drawn) [Example 8, N-[1-(4-Chlorophenyl)-2,2,2-trifluoroethyl]-1-(3,5-difluoropyridin-2-yl)-7-[(4S)-4-hydroxy-2-oxopyrrolidin-1-yl]-4-oxo-1,4-dihydro-1,8-naphthyridine-3-carboxamide]: 83 nM and 100%.
On the same counts, the results for `O=C(NC(c1c(F)cccc1F)C(F)(F)F)c1cn(-c2ncc(F)cc2F)c2nc(N3C[C@@H](O)CC3=O)ccc2c1=O` (stereo partly drawn) [Example 9, N-[1-(2,6-Difluorophenyl)-2,2,2-trifluoroethyl]-1-(3,5-difluoropyridin-2-yl)-7-[(4S)-4-hydroxy-2-oxopyrrolidin-1-yl]-4-oxo-1,4-dihydro-1,8-naphthyridine-3-carboxamide] are 20 nM and 94.5%.
The matching figures for `O=C(NC(c1cccc(F)c1)C(F)(F)F)c1cn(-c2ncc(F)cc2F)c2nc(N3C[C@@H](O)CC3=O)ccc2c1=O` (stereo partly drawn) [Example 10, 1-(3,5-Difluoropyridin-2-yl)-7-[(4S)-4-hydroxy-2-oxopyrrolidin-1-yl]-4-oxo-N-[2,2,2-trifluoro-1-(3-fluorophenyl)ethyl]-1,4-dihydro-1,8-naphthyridine-3-carboxamide]: 25 nM and 95.5%.
As for `CC[C@@H](NC(=O)c1cn(-c2ncc(F)cc2Cl)c2nc(N3C[C@@H](O)CC3=O)ccc2c1=O)C(F)(F)F` [Example 20, 1-(3-Chloro-5-fluoropyridin-2-yl)-7-[(4S)-4-hydroxy-2-oxopyrrolidin-1-yl]-4-oxo-N-[(2R)-1,1,1-trifluorobutan-2-yl]-1,4-dihydro-1,8-naphthyridine-3-carboxamide], the EC50 is 330 nM and the Emax came out at 87%.
On the same counts, the results for `O=C(N[C@H](C1CC1)C(F)(F)F)c1cn(-c2ncc(F)cc2Cl)c2nc(N3C[C@@H](O)CC3=O)ccc2c1=O` [Example 21, 1-(3-Chloro-5-fluoropyridin-2-yl)-N-[(1R)-1-cyclopropyl-2,2,2-trifluoroethyl]-7-[(4S)-4-hydroxy-2-oxopyrrolidin-1-yl]-4-oxo-1,4-dihydro-1,8-naphthyridine-3-carboxamide] are 195 nM and 98.5%.
For `O=C(N[C@H](C1CC1)C(F)(F)F)c1cn(-c2ncccc2Cl)c2nc(N3C[C@@H](O)CC3=O)ccc2c1=O` [Example 22, 1-(3-Chloropyridin-2-yl)-N-[(1R)-1-cyclopropyl-2,2,2-trifluoroethyl]-7-[(4S)-4-hydroxy-2-oxopyrrolidin-1-yl]-4-oxo-1,4-dihydro-1,8-naphthyridine-3-carboxamide], a half-maximal effect (EC50) was put at 575 nM and the Emax is 85%.
The matching figures for `O=C(NC(c1cccc(F)c1)C(F)(F)F)c1cn(-c2ncccc2Cl)c2nc(N3C[C@@H](O)CC3=O)ccc2c1=O` (stereo partly drawn) [Example 23, 1-(3-Chloropyridin-2-yl)-7-[(4S)-4-hydroxy-2-oxopyrrolidin-1-yl]-4-oxo-N-[2,2,2-trifluoro-1-(3-fluorophenyl)ethyl]-1,4-dihydro-1,8-naphthyridine-3-carboxamide]: 145 nM and 92%.
The matching figures for `CC[C@H](NC(=O)c1cn(-c2c(F)cncc2F)c2nc(N3C[C@@H](O)CC3=O)ccc2c1=O)C(F)(F)F` [Example 24, 1-(3,5-Difluoropyridin-4-yl)-7-[(4S)-4-hydroxy-2-oxopyrrolidin-1-yl]-4-oxo-N-[(2S)-1,1,1-trifluorobutan-2-yl]-1,4-dihydro-1,8-naphthyridine-3-carboxamide]: 560 nM and 87%.
The matching figures for `O=C(NC(C1CC1)C(F)(F)F)c1cn(-c2ncc(F)cc2F)c2nc(N3CC[C@H](O)C3=O)ccc2c1=O` (stereo partly drawn) [Example 25, N-[1-Cyclopropyl-2,2,2-trifluoroethyl]-1-(3,5-difluoropyridin-2-yl)-7-[(3S)-3-hydroxy-2-oxopyrrolidin-1-yl]-4-oxo-1,4-dihydro-1,8-naphthyridine-3-carboxamide]: 210 nM and 98%.
`O=C(NC(C1CC1)C(F)(F)F)c1cn(-c2ncc(F)cc2F)c2nc(N3CC[C@@H](O)C3=O)ccc2c1=O` (stereo partly drawn) [Example 26, N-[1-Cyclopropyl-2,2,2-trifluoroethyl]-1-(3,5-difluoropyridin-2-yl)-7-[(3R)-3-hydroxy-2-oxopyrrolidin-1-yl]-4-oxo-1,4-dihydro-1,8-naphthyridine-3-carboxamide]: the EC50 turned out to be 200 nM and the Emax is 94.5%.
The matching figures for `CC[C@H](NC(=O)c1cn(-c2ncc(F)cc2F)c2nc(N3C(=O)C(C)(C)C(O)C34CC4)ccc2c1=O)C(F)(F)F` (stereo partly drawn) [Example 31, 1-(3,5-Difluoropyridin-2-yl)-7-[7-hydroxy-6,6-dimethyl-5-oxo-4-azaspiro[2.4]hept-4-yl]-4-oxo-N-[(2S)-1,1,1-trifluorobutan-2-yl]-1,4-dihydro-1,8-naphthyridine-3-carboxamide]: 645 nM and 88.5%.
The matching figures for `CC1(C)C(=O)N(c2ccc3c(=O)c(C(=O)N[C@H](C4CC4)C(F)(F)F)cn(-c4ncc(F)cc4F)c3n2)C2(CC2)C1O` (some centres unmarked) [Example 32]: 400 nM and 89.5%.
`CC1(C)C(=O)N(c2ccc3c(=O)c(C(=O)N[C@@H](C4CC4)C(F)(F)F)cn(-c4ncc(F)cc4F)c3n2)C2(CC2)C1O` (stereo partly drawn) [Example 33, N-[(1S)-1-Cyclopropyl-2,2,2-trifluoroethyl]-1-(3,5-difluoropyridin-2-yl)-7-[7-hydroxy-6,6-dimethyl-5-oxo-4-azaspiro[2.4]hept-4-yl]-4-oxo-1,4-dihydro-1,8-naphthyridine-3-carboxamide]: a half-maximal response (EC50) required 505 nM and the Emax is 83%.
On the same counts, the results for `CC[C@@H](NC(=O)c1cn(-c2ncc(F)cc2F)c2nc(N3CCCCC3=O)ccc2c1=O)C(F)(F)F` [Example 34, 1-(3,5-Difluoropyridin-2-yl)-4-oxo-7-(2-oxopiperidin-1-yl)-N-[(2R)-1,1,1-trifluorobutan-2-yl]-1,4-dihydro-1,8-naphthyridine-3-carboxamide] are 880 nM and 82%.
